Laboratory results reported in US20190255144A1, “SPECIFIC OLIGOPEPTIDES AS ANTI-ANGIOGENIC DRUGS” (NEURONAX, priority 2014, published 2019).

Tested on: chorioallantoic membrane (CAM) vascularization
Assay: Treatments on the chorioallantoic membrane (CAM), fluorescein angiography
Type: in vivo, chicken embryo
Conditions: impregnated sponge on CAM at ED9; oligopeptide 250 μg/mL (9 hours), VEGF 10 ng/mL
Source text: In fact, TSP-1 is known for inducing the apoptosis of endothelial cells. […] It is also a decisive process under certain physiological and pathological conditions (cancers in particular). This mechanism is controlled by numerous factors having either an inhibitor potential or an activator. So as to evaluate the main properties of these in vivo factors, the most common model is the CAM (chorioallantoic membrane) model from the chicken embryo (Ribatti et al., 2000). It offers the advantage of making it possible to test the pro- or anti-angiogenic factors during an active angiogenesis phase between the embryonic stages 4j and 10j. The major effects of the various molecules can therefore be evaluated in vivo. The model of the CAM can also be used in experimental tumor development. The grafting of human cancer cells onto the surface of the CAM is carried out in the 9-day embryonic stage. Three days after the grafting at ED12, the formation of a tumor is visible at the surface of the CAM. The latter can be treated topically during the 48 hours that follow this stage, and the tumors are sampled at ED14j. The fertilized eggs (Haas Poultry Farm, Strasbourg, France) are kept for 24 hours at 18° C. before the incubation is started up. […] The embryonic stages are determined from tables of Hamburger and Hamilton (H and H, 1951). […]

**Q.** VEGF was tested. Which “Vascularization / microvascularization of the CAM (in words)” value did it give?
**A.** the microvascularization is dense and comprises numerous vascular branches
